In patent EP1202975B1, “SUBSTITUTED POLYCYCLIC ARYL AND HETEROARYL PYRAZINONES USEFUL FOR SELECTIVE INHIBITION OF THE COAGULATION CASCADE” (Pharmacia Corporation, priority 1999, dated 2000):
Where two headings read alike, the source gives them in different places.

What was measured:
[1] = molecular target: Human factor Xa (Homo sapiens, UniProt P00742); assay: Xa Assay
[2] = molecular target: T1, TF-VIIa (Homo sapiens, UniProt P08709); assay: TF-VIIa Assay; assay type: biochemical
T1 construct: 2nM recombinant human factor VIIa; purchased American Diagnostica, Greenwich CT; host or cells: soluble TF made in house in E. coli

[3] = cells given as a plain number (IC50); read-out: IC50 or % Inhibition TF-VIIa (30 µM)
[4] = read-out: IC50 or % Inhibition Factor Xa (30 µM), cells given as a plain number (IC50)
[5] = read-out: IC50 or % Inhibition TF-VIIa (30 µM); cells given as a plain number (IC50)
[6] = cells given as a plain number (IC50)

T1 sequence (P08709 213-466 limits assumed): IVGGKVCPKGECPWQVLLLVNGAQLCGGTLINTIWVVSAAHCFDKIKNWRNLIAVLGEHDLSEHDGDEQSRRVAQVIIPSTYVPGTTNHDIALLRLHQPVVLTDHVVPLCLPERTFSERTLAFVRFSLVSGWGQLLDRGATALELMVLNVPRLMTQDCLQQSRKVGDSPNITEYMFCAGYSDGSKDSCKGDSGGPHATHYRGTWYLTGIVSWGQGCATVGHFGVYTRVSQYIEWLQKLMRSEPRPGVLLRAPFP
T1 sequence (P08709 61-212 limits assumed): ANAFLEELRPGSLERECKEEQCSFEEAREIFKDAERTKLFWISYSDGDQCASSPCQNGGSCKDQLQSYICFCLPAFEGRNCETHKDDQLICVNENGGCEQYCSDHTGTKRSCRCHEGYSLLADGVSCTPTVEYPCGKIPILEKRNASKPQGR
T1 sequence (P13726 33-251 partner limits assumed): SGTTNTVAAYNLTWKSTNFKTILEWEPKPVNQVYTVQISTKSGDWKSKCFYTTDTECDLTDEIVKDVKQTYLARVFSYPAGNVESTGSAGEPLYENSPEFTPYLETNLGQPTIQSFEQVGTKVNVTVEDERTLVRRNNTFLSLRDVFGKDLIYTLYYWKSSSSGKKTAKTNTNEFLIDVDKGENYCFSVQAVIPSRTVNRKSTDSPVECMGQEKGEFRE
Chain of Human factor Xa (P00742 235-488 limits assumed): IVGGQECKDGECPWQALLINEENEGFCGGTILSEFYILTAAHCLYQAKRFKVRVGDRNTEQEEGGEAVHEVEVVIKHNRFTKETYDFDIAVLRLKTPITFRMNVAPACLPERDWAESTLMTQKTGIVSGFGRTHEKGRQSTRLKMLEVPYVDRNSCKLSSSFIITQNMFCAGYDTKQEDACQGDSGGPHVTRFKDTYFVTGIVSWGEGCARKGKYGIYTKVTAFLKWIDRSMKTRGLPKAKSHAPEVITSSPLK
Chain of Human factor Xa (P00742 41-179 limits assumed): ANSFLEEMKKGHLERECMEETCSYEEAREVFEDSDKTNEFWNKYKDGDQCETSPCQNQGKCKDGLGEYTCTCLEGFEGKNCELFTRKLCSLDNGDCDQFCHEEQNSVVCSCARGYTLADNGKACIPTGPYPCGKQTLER

Row | Structure (SMILES) | IC50 or % Inhibition Factor Xa (30 µM) ([1]; % inhibition at 30 µM) | IC50 [1, 4] [µM] | further results
1 | N=C(N)c1ccc(CNC(=O)Cn2c(-c3cccc4ccccc34)c(Cl)nc(NCCc3ccccc3)c2=O)cc1 [compound 80] | 29%@30 | – | IC50 [2, 3]: 1.29 µM
2 | N=C(N)c1ccc(CNC(=O)Cn2c(-c3ccccc3)c(Cl)nc(NC3CCS(=O)(=O)C3)c2=O)cc1 (centres unmarked) [1507-36] | 0% | – | IC50 [2, 3]: 13.8 µM
3 | N=C(N)c1ccc(CNC(=O)Cn2c(-c3ccccc3F)c(Cl)nc(NCCc3ccccc3)c2=O)cc1 [1515-35] | – | > 30 | IC50 [2, 3]: 1.8 µM
4 | N=C(N)c1ccc(CNC(=O)Cn2c(-c3cccc(N)c3)c(Cl)nc(NC3CCC3)c2=O)cc1 [compound 90] | 16%@30 | – | IC50 [2, 3]: 0.02 µM
5 | COc1cccc(-c2c(Cl)nc(NCc3ccccc3)c(=O)n2CC(=O)NCc2ccc(C(=N)N)cc2)c1 [1515-05] | – | > 30 | IC50 [2, 5]: 4 µM
6 | CNc1cccc(-c2c(Cl)nc(NC(C)C)c(=O)n2CC(=O)NCc2ccc(C(=N)N)cc2)c1 [Example 104] | – | – | IC50 [2, 3]: 1.2 µM; IC50 [1]: > 30 µM
7 | N=C(N)c1ccc(CNC(=O)Cn2c(-c3ccccc3)c(Cl)nc(NC3CCS(=O)(=O)C3)c2=O)cc1 (centres unmarked) [1522-46] | – | > 30 | IC50 [2, 3]: 1 µM
8 | N=C(N)c1ccc(CNC(=O)Cn2c(-c3ccccc3C(F)(F)F)c(Cl)nc(NCc3ccccc3)c2=O)cc1 [1515-12] | – | > 30 | IC50 [2, 5]: 6.3 µM
9 | N=C(N)NCCCC(NC(=O)Cn1c(-c2cccc(N)c2)c(Cl)nc(NCc2ccccc2)c1=O)C(=O)c1nccs1 (centres unmarked) [compound 91] | – | 7 | IC50 [2, 3]: 0.07 µM
10 | N=C(N)c1ccc(CNC(=O)Cn2c(-c3ccccc3)cnc(NS(=O)(=O)c3ccccc3)c2=O)cc1 [Example 105] | 5% | – | –
11 | Nc1ccc(CNC(=O)Cn2c(Cc3ccccc3)c(Cl)nc(NCCc3ccccc3)c2=O)cn1 [Example 9] | – | – | IC50 or % Inhibition Factor Xa (30 µM) [1, 6]: >0 µM
12 | Nc1ccc(CNC(=O)Cn2c(CCc3ccccc3)c(Cl)nc(NCCc3ccccc3)c2=O)cn1 [Example 10, 3-(2-Phenylethylamino)-5-chloro-6-phenethyl-1-(2-amino-5-methylcarboxamidomethylpyridinyl)pyrazinone] | – | – | IC50 or % Inhibition Factor Xa (30 µM) [1, 6]: >0 µM
13 | CC(=O)Nc1cccc(-c2c(Cl)nc(NCCc3ccccc3)c(=O)n2CC(=O)NCc2ccc(C(=N)N)cc2)c1 [Example 100] | – | – | IC50 [1]: > 30 µM
14 | N=C(N)c1ccc(CNC(=O)Cn2c(-c3cccc(Cl)c3)c(Cl)nc(NCc3ccccc3)c2=O)cc1 [1471-25] | 31% | – | –
15 | Nc1cccc(-c2c(Cl)nc(NC3CCC3)c(=O)n2CC(=O)NCCCc2ccnc(N)n2)c1 [Example 26] | 5% | – | –
16 | CS(=O)(=O)Nc1cccc(-c2c(Cl)nc(NCCc3ccccc3)c(=O)n2CC(=O)NCc2ccc(C(=N)N)cc2)c1 [Example 101] | – | – | IC50 [1]: > 30 µM
17 | CSc1ccc(N)cc1-c1c(Cl)nc(NC(C)C)c(=O)n1CC(=O)NCc1ccc(C(=N)N)cc1 [compound 76] | 0% | – | –
18 | CC(C)Nc1nc(Cl)c(-c2cccc([N+](=O)[O-])c2)n(CC(=O)NCc2ccc(C#N)cc2)c1=O [Example 59] | 2% | – | –

Second part, led by results:

Row | IC50 or % Inhibition Factor Xa (30 µM) ([1]; % inhibition at 30 µM) | IC50 [1, 4] [µM] | Structure (SMILES) | further results
19 | 9% | – | N=C(N)c1ccc(CNC(=O)Cn2c(-c3ccccc3)c(Cl)nc(NCCCN)c2=O)cc1 [Example 45] | –
20 | 0% | – | CC(C)(C)CCNc1nc(Cl)c(-c2ccccc2)n(CC(=O)NCc2ccc(C(=N)N)cc2)c1=O [1517-41] | IC50 [2, 3]: 2.2 µM
21 | 10% | – | N=C(N)c1ccc(CNC(=O)Cn2c(-c3ccccc3)c(Cl)nc(NCCCCN)c2=O)cc1 [Example 46] | –
22 | – | > 30 | N=C(N)c1ccc(CNC(=O)Cn2c(-c3ccccc3)c(Cl)nc(NC3CCCC3)c2=O)cc1 [1507-25] | IC50 [2, 5]: 1.6 µM
23 | – | > 30 | CNc1cccc(-c2c(Cl)nc(NCCc3ccccc3)c(=O)n2CC(=O)NCc2ccc(C(=N)N)cc2)c1 [compound 95] | –
24 | – | > 30 | N=C(N)c1ccc(CNC(=O)Cn2c(-c3ccccc3)c(Cl)nc(N3CCC3)c2=O)cc1 [1522-28] | –
25 | 4% | – | N=C(N)c1ccc(CNC(=O)Cn2c(-c3ccccc3)c(Cl)nc(NCCN)c2=O)cc1 [Example 44] | –
26 | 0% | – | N=C(N)c1ccc(CNC(=O)Cn2c(-c3ccccc3)c(Cl)nc(CN)c2=O)cc1 [Example 18] | –
27 | – | > 30 | N=C(N)c1ccc(CNC(=O)Cn2c(-c3ccccc3)c(Cl)nc(NCCc3cccs3)c2=O)cc1 [1507-18] | –
